This is an account of results in patent US20210053957A1, “HERBICIDAL COMPOUNDS” (SYNGENTA PARTICIPATIONS AG, priority 2018, published 2021).

Molecules are shown by their SMILES.

Test in all cases: Post-emergence efficacy, glasshouse spray test
Common to all, as to type: in vivo

Assay [1] has as its system Amaranthus palmeri (AMAPA). The settings on record: Amaranthus palmeri, post-emergence, 312 h; Application Rate 500 g/Ha; evaluated after 13 days; read-out: Control of weed species after post-emergence application, AMAPA (100=total damage to plant; 0=no damage to plant). A digest of the protocol: (§1)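 Plants grown 14 days in glasshouse (24/16 °C day/night, 14 h light, 65% humidity), then sprayed post-emergence with compound formulated in acetone/IF50 emulsifier, diluted in 0.25% or 1% Empicol ESC70 plus 1% ammonium sulphate. Damage scored after 13 days, 0 (none) to 100 (total).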

The subject of assay [2] is Chenopodium album (CHEAL). The settings on record: Chenopodium album, post-emergence, 312 h; Application Rate 500 g/Ha; evaluated after 13 days; read-out: Control of weed species after post-emergence application, CHEAL (100=total damage to plant; 0=no damage to plant). The gist of the method:
as §1

The subject of assay [3] is Digitaria sanguinalis (DIGSA). The settings on record: Digitaria sanguinalis, post-emergence, 312 h; Application Rate 500 g/Ha; evaluated after 13 days; read-out: Control of weed species after post-emergence application, DIGSA (100=total damage to plant; 0=no damage to plant). A digest of the protocol: as §1
For assay [4], the system named is Echinochloa crus-galli (ECHCG). The conditions noted are these: Echinochloa crus-galli, post-emergence, 312 h; Application Rate 500 g/Ha; evaluated after 13 days; read-out: Control of weed species after post-emergence application, ECHCG (100=total damage to plant; 0=no damage to plant). A digest of the protocol: as §1
The next assay deals with Eleusine indica (ELEIN). The settings on record: Eleusine indica, post-emergence, 312 h; Application Rate 500 g/Ha; evaluated after 13 days; read-out: Control of weed species after post-emergence application, ELEIN (100=total damage to plant; 0=no damage to plant). The gist of the method: as §1
The subject of assay [5] is Euphorbia heterophylla (EPHHL). The settings on record: Euphorbia heterophylla, post-emergence, 312 h; Application Rate 500 g/Ha; evaluated after 13 days; read-out: Control of weed species after post-emergence application, EPHHL (100=total damage to plant; 0=no damage to plant). The gist of the method:
as §1

The test system of assay [6] is Ipomoea hederacea (IPOHE). The conditions noted are these: Ipomoea hederacea, post-emergence, 312 h; Application Rate 500 g/Ha; evaluated after 13 days; read-out: Control of weed species after post-emergence application, IPOHE (100=total damage to plant; 0=no damage to plant). A digest of the protocol:
as §1

Another assay relates to Lolium perenne (LOLPE). The conditions noted are these: Lolium perenne, post-emergence, 312 h; Application Rate 500 g/Ha; evaluated after 13 days; read-out: Control of weed species after post-emergence application, LOLPE (100=total damage to plant; 0=no damage to plant). The gist of the method:
as §1

The subject of a further assay is Setaia fabei (SETFA). The settings on record: Setaria faberi, post-emergence, 312 h; Application Rate 500 g/Ha; evaluated after 13 days; read-out: Control of weed species after post-emergence application, SETFA (100=total damage to plant; 0=no damage to plant). The gist of the method:
as §1

Consider `O=S(=O)([O-])CC[n+]1ccc(-c2nc(Cl)cs2)cn1` [Compound A25], for which the pest or weed control at 500 g/ha in assay [1] was 80%; in assay [2] it was 70%; in assay [3] it was 40%; in assay [4], 30%; in the assay on Eleusine indica (ELEIN), 40%; in assay [5], 80%. Moreover, the pest or weed control at 500 g/ha in assay [6] stood at 40%; in the assay with Lolium perenne (LOLPE), 20%; with Setaia fabei (SETFA) it was 40%.

Consider `Cn1ncnc1-c1cc[n+](CCC(=O)O)nc1` [Compound A27], for which the pest or weed control at 500 g/ha in assay [1] is 100%; in assay [2], 90%; in assay [3], 90%; in assay [4] it was 90%; with Eleusine indica (ELEIN) it was 50%; in assay [5], 90%. In addition, the pest or weed control at 500 g/ha is 70% in assay [6], 30% in the assay on Lolium perenne (LOLPE) and 90% with Setaia fabei (SETFA).

Take `Cn1nc(-c2cc[n+](CCS(=O)(=O)[O-])nc2)cc1C(F)(F)F` [Compound A29]: the pest or weed control at 500 g/ha in assay [1] turned out to be 20%; in [2], 50%; in [3], 30%; in assay [4] it was 20%; in the assay on Eleusine indica (ELEIN), 30%; in [5] it was 20%. The pest or weed control at 500 g/ha (in [6]; in the assay on Lolium perenne (LOLPE); in the assay on Setaia fabei (SETFA)) was 20% throughout.

For the compound `Cn1nc(C(F)(F)F)cc1-c1cc[n+](CCS(=O)(=O)[O-])nc1` [Compound A30], the pest or weed control at 500 g/ha in assay [1] came out at 80%; in assay [2], 40%; in assay [3], 30%; in [4] it was 20%; in the assay with Eleusine indica (ELEIN), 40%; in assay [5] it was 40%. Further, the pest or weed control at 500 g/ha in assay [6] was 20%; in the assay with Lolium perenne (LOLPE), 50%; in the assay on Setaia fabei (SETFA) it was 40%.

As to `Cn1ccnc1-c1cc[n+](CCC(=O)O)nc1` [Compound A31, 3-[4-(1-methylimidazol-2-yl)pyridazin-1-ium-1-yl]propanoic acid; 2,2,2-trifluoroacetate], the pest or weed control at 500 g/ha in assay [1] turned out to be 30%; in assay [2] it was 20%; in assay [3], 50%; in assay [4] it was 40%; with Eleusine indica (ELEIN), 50%; in assay [5] it was 30%. Besides, the pest or weed control at 500 g/ha in assay [6] came out at 10%; in the assay on Lolium perenne (LOLPE), 20%; with Setaia fabei (SETFA), 60%.

In the case of `O=C(O)CC[n+]1ccc(-c2ncco2)cn1` [Compound A32], the pest or weed control at 500 g/ha in [1] is 80%; in assay [2] it was 90%; in assay [3], 90%; in [4] it was 90%; in the assay on Eleusine indica (ELEIN) it was 90%; in assay [5], 80%. For the same compound, the pest or weed control at 500 g/ha turned out to be 60% in [6], 40% with Lolium perenne (LOLPE) and 80% in the assay with Setaia fabei (SETFA).

For `COc1cc(-c2cc[n+](CCC(=O)O)nc2)sn1` [Compound A33], the pest or weed control at 500 g/ha in assay [1] worked out at 100%; in assay [2], 70%; in assay [3], 70%; in assay [4], 20%; with Eleusine indica (ELEIN) it was 50%; in assay [5], 80%. For the same compound, the results for the pest or weed control at 500 g/ha (in [6]; with Lolium perenne (LOLPE); in the assay on Setaia fabei (SETFA)) were 10%, 30% and 30%, respectively.

As for `COc1cc(-c2cc[n+](CCS(=O)(=O)[O-])nc2)sn1` [Compound A34], the pest or weed control at 500 g/ha in assay [1] turned out to be 60%; in [2], 20%; in assay [3] it was 30%; in assay [4] it was 50%; in the assay with Eleusine indica (ELEIN) it was 20%; in assay [5], 30%. Further, the pest or weed control at 500 g/ha in [6] is 20%; in the assay with Lolium perenne (LOLPE) it was 20%; in the assay on Setaia fabei (SETFA), 40%.

In the case of `Cc1cc(-c2cc[n+](CCS(=O)(=O)[O-])nc2)sn1` [Compound A35], the pest or weed control at 500 g/ha in assay [1] amounted to 100%; in assay [2] it was 100%; in assay [3], 50%; in assay [4] it was 50%; in the assay with Eleusine indica (ELEIN) it was 70%; in assay [5], 90%. For the same compound, the pest or weed control at 500 g/ha in [6] amounted to 50%; in the assay on Lolium perenne (LOLPE), 70%; in the assay with Setaia fabei (SETFA), 60%.

As to `O=S(=O)([O-])CC[n+]1ccc(-c2cccs2)cn1` [Compound A36], the pest or weed control at 500 g/ha in assay [1] was 100%; in assay [2] it was 60%; in assay [3], 10%; in [4], 0%; with Eleusine indica (ELEIN) it was 20%; in assay [5] it was 30%. For the same compound, the pest or weed control at 500 g/ha in assay [6] was found to be 30%; in the assay with Lolium perenne (LOLPE) it was 20%; in the assay with Setaia fabei (SETFA), 10%.

Regarding `O=C(O)CC[n+]1ccc(-c2nnc[nH]2)cn1` [Compound A37], the pest or weed control at 500 g/ha in assay [1] stood at 30%; in assay [2], 50%; in [3], 10%; in assay [4], 10%; in the assay with Eleusine indica (ELEIN) it was 10%; in assay [5], 30%. The pest or weed control at 500 g/ha was 20% in [6], 0% with Lolium perenne (LOLPE) and 10% with Setaia fabei (SETFA).

`O=S(=O)([O-])CC[n+]1ccc(-c2ncn[nH]2)cn1` [Compound A38]: the pest or weed control at 500 g/ha in [1] turned out to be 20%; in [2], 30%; in assay [3], 20%; in [4] it was 10%; with Eleusine indica (ELEIN) it was 0%; in assay [5] it was 20%. Also, the values for the pest or weed control at 500 g/ha (in assay [6]; with Lolium perenne (LOLPE); in the assay with Setaia fabei (SETFA)) were 20%, 10% and 10%, respectively.

Turning to `Cn1cnc(-c2cc[n+](CCS(=O)(=O)[O-])nc2)n1` [Compound A39], the pest or weed control at 500 g/ha amounted to 90% in [1]; 90% in assay [2]; 90% in [3]; 80% in [4]; 80% with Eleusine indica (ELEIN); 90% in [5]. Further, the pest or weed control at 500 g/ha is 80% in [6], 70% in the assay on Lolium perenne (LOLPE) and 90% in the assay on Setaia fabei (SETFA).

Turning to `Cc1coc(-c2cc[n+](CCS(=O)(=O)[O-])nc2)n1` [Compound A40], the pest or weed control at 500 g/ha in assay [1] worked out at 100%; in assay [2] it was 100%; in assay [3], 80%; in assay [4], 80%; with Eleusine indica (ELEIN), 100%; in [5], 100%. Besides, the pest or weed control at 500 g/ha in [6] is 90%; with Lolium perenne (LOLPE), 80%; in the assay on Setaia fabei (SETFA), 80%.

As for `O=S(=O)([O-])CC[n+]1ccc(-c2ccoc2)cn1` [Compound A42], the pest or weed control at 500 g/ha was 20% in assay [1]; 40% in assay [2]; 20% in [3]; 10% in assay [4]; 20% in the assay on Eleusine indica (ELEIN); 30% in [5]. Besides, the values for the pest or weed control at 500 g/ha (in assay [6]; with Lolium perenne (LOLPE); in the assay on Setaia fabei (SETFA)) were 20%, 0% and 10%, respectively.
